Measurements: ChEMBL document CHEMBL1201862, “PubChem BioAssay data set” (2004)
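Results reflect a 48-hour exposure of cells in 96-well plates to compound at five concentrations. Abbreviation: GI50, concentration required for 50% inhibition of growth.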 The source made the active and inactive calls. No stated cut-off is given here; in the data, active = GI50 up to about 1.1 µM and inactive = higher.

Tests used:
Experiment in all cases: inhibition of tumour cell growth, NCI panel, 48 h
DMS-114 = system: DMS-114
HOP-18 = system: HOP-18
DLD-1 = system: DLD-1
M19-MEL = system: M19-MEL
LXFL 529 = system: LXFL 529
KM-20L2 = system: KM-20L2
SNB-78 = system: SNB-78
XF498 = system: XF498
RXF 631 = system: RXF 631

Measured: GI50

O=C1c2ccccc2N2OC3(N4CCCC4)CCCC3C12c1ccccc1 (stereo not drawn)
inactive: DMS-114 83.4 µM | HOP-18 > 100 µM | DLD-1 > 100 µM | M19-MEL > 100 µM | LXFL 529 67.8 µM | KM-20L2 > 100 µM | SNB-78 > 100 µM | XF498 92.3 µM

C=C(C)CCOC(c1ccccc1)(c1ccccc1)c1ccccc1
inactive: DLD-1 60.4 µM | RXF 631 55.5 µM | M19-MEL 27.9 µM | LXFL 529 45.8 µM | KM-20L2 23.5 µM | SNB-78 70.1 µM | XF498 26.1 µM

CC1CC2C(=O)N(c3ccccc3)C(=O)C2c2[nH]c3ccccc3c21 (stereo not drawn)
inactive: DMS-114 30.7 µM | DLD-1 89.3 µM | RXF 631 34.3 µM | M19-MEL 41.5 µM | LXFL 529 42.5 µM | SNB-78 > 100 µM

Sc1nnc(-c2cccnc2)[nH]1
inactive: DMS-114 > 100 µM | HOP-18 > 100 µM | DLD-1 > 100 µM | LXFL 529 > 100 µM | KM-20L2 > 100 µM | SNB-78 > 100 µM | XF498 > 100 µM

Cn1c(=O)c2c(ncn2CCCCn2ccnc2[N+](=O)[O-])n(C)c1=O
inactive: DMS-114 > 100 µM | M19-MEL > 100 µM | LXFL 529 > 100 µM | KM-20L2 > 100 µM | SNB-78 > 100 µM | XF498 > 100 µM

O=C(NCCCCCCCCNC(=O)c1cnc2ccccc2n1)c1cnc2ccccc2n1
inactive: DMS-114 > 100 µM | HOP-18 > 100 µM | DLD-1 > 100 µM | M19-MEL > 100 µM | LXFL 529 > 100 µM | SNB-78 > 100 µM | XF498 > 100 µM

CCCCCCCCCCCCCCCCCC[N+](C)(C)Cc1ccc(C[N+](C)(C)CCCCCCCCCCCCCCCCCC)cc1
inactive: DMS-114 9.46 µM | HOP-18 13 µM | DLD-1 22.1 µM | RXF 631 20.9 µM | M19-MEL 16.9 µM | LXFL 529 2.51 µM | KM-20L2 31.3 µM | SNB-78 18.8 µM

COC(=O)c1c(CC#N)cccc1CC#N
inactive: DMS-114 > 100 µM | DLD-1 > 100 µM | RXF 631 > 100 µM | M19-MEL > 100 µM | LXFL 529 > 100 µM | KM-20L2 > 100 µM | XF498 > 100 µM

OCCN1CCN2C=C(C3CCCC4N(CCO)CCN34)CCC21 (stereo not drawn)
inactive: DMS-114 25.4 µM | HOP-18 > 100 µM | DLD-1 22.7 µM | M19-MEL 34.7 µM | LXFL 529 43.8 µM | KM-20L2 > 100 µM | SNB-78 37.9 µM | XF498 48.1 µM

COc1ccc(-c2[nH]c3ccccc3c2CCNS(=O)(=O)c2ccc(C)cc2)cc1
inactive: DMS-114 > 9.55 µM | HOP-18 > 7.4 µM | DLD-1 8.09 µM | RXF 631 > 8.49 µM | M19-MEL > 8.39 µM | LXFL 529 > 10 µM | KM-20L2 > 8.47 µM | SNB-78 > 10 µM | XF498 > 8.83 µM

Cc1nc2ccccc2c(=O)n1-c1ccccc1F
inactive: DMS-114 > 100 µM | HOP-18 > 100 µM | DLD-1 > 100 µM | M19-MEL > 100 µM | LXFL 529 > 100 µM | KM-20L2 > 100 µM | SNB-78 > 100 µM

C=CC(=O)NCCSCCCOC1(C(=O)O)CC(O)C(NC(C)=O)C(C(O)C(O)CO)O1 (stereo not drawn)
inactive: DMS-114 > 100 µM | DLD-1 > 100 µM | LXFL 529 > 100 µM | SNB-78 > 100 µM | XF498 > 100 µM

Cc1ccc(S(=O)(=O)N2CCC3(C(/C=C/c4ccccc4)=Nc4ccccc43)C2c2ccccc2)cc1 (stereo not drawn)
inactive: DMS-114 > 100 µM | DLD-1 > 100 µM | M19-MEL > 100 µM | LXFL 529 > 100 µM | KM-20L2 > 100 µM | SNB-78 > 100 µM | XF498 63.1 µM

N#C/C(=C1\OC(=N)C(c2ccc(Cl)cc2)=C1O)c1ccc(Cl)cc1
inactive: DMS-114 14.8 µM | HOP-18 16.9 µM | DLD-1 15.3 µM | M19-MEL 15.1 µM | LXFL 529 11.7 µM | KM-20L2 18.4 µM | SNB-78 12.8 µM

C=C(CO)CC(O)c1cc(OC)ccc1OC (stereo not drawn)
inactive: M19-MEL > 100 µM | LXFL 529 > 100 µM | XF498 > 100 µM

O=C1NC2(C=Cc3c(ccc4ccccc34)O2)Oc2ccccc21 (stereo not drawn)
inactive: DMS-114 13.2 µM | M19-MEL 25.1 µM | LXFL 529 18.3 µM | KM-20L2 25.8 µM | SNB-78 20.7 µM | XF498 19.1 µM

CC(=O)OC[C@]1(O)CC[C@@]23CC1C[C@@H]2CCC1C(C)(C)CCC[C@@]13C (stereo partly drawn)
inactive: DMS-114 11.2 µM | DLD-1 15.3 µM | RXF 631 14.2 µM | M19-MEL 16 µM | LXFL 529 11.2 µM | KM-20L2 17.3 µM | SNB-78 16.1 µM | XF498 14.1 µM

CCc1ccccc1NC(=O)C(=O)C(C(=O)c1ccc(OC)cc1)c1ccc(OC)cc1 (stereo not drawn)
inactive: DMS-114 > 100 µM | HOP-18 > 100 µM | DLD-1 > 100 µM | RXF 631 > 100 µM | LXFL 529 > 100 µM | KM-20L2 > 100 µM | SNB-78 > 100 µM | XF498 > 100 µM

Cc1nc(Nc2ccc(Cl)cc2)sc1C(=O)NNC(=S)NN
inactive: DMS-114 17.5 µM | HOP-18 18.3 µM | DLD-1 16.6 µM | RXF 631 19.5 µM | M19-MEL 22.3 µM | LXFL 529 20 µM | KM-20L2 17.5 µM | SNB-78 19.5 µM | XF498 21.2 µM

CC(=O)Nc1ccc(S(=O)(=O)NN(C)S(=O)(=O)c2ccc(C)cc2)cc1
inactive: DMS-114 > 100 µM | DLD-1 > 100 µM | M19-MEL > 100 µM | KM-20L2 > 100 µM

Cn1nc(-c2ccccc2)c(N=[N+]=[N-])cc1=O
inactive: DMS-114 > 100 µM | M19-MEL > 100 µM | LXFL 529 > 100 µM | KM-20L2 > 100 µM | XF498 > 100 µM

CCCCCCCCCCCCCC(=O)OCC1OC(n2cc(F)c(=O)[nH]c2=O)C(NC(=O)OCc2ccccc2)C(OC(=O)CCCCCCCCCCCCC)C1O (stereo not drawn)
inactive: DMS-114 > 100 µM | HOP-18 > 100 µM | DLD-1 > 100 µM | RXF 631 > 100 µM | M19-MEL > 100 µM | LXFL 529 > 100 µM | KM-20L2 > 100 µM | SNB-78 > 100 µM | XF498 > 100 µM

COC(=O)OCC1OC(N2C(=O)NC(=O)C(Br)C2N=[N+]=[N-])CC1OC(=O)OC (stereo not drawn)
inactive: DMS-114 > 100 µM | DLD-1 > 100 µM | M19-MEL > 100 µM | LXFL 529 > 100 µM | KM-20L2 > 100 µM | SNB-78 > 100 µM | XF498 > 100 µM

Cc1ccc(C)c(NC(=O)CC/C(=N\NC(=O)C(N)=O)C(C)C(=O)c2ccc(O)cc2)c1 (stereo not drawn)
inactive: DMS-114 > 100 µM | HOP-18 > 100 µM | DLD-1 > 100 µM | RXF 631 > 100 µM | M19-MEL > 100 µM | LXFL 529 > 100 µM | KM-20L2 > 100 µM | SNB-78 > 100 µM

O=P(O)(OCC(O)O)OCC(O)O
inactive: DMS-114 > 100 µM | HOP-18 41.4 µM | DLD-1 > 100 µM | RXF 631 > 100 µM | M19-MEL > 100 µM | LXFL 529 > 100 µM | KM-20L2 > 100 µM | SNB-78 > 100 µM | XF498 > 100 µM

COc1ccc2c(c1)[n+]([O-])c(C(=O)C/C(=N/NC(=O)C[N+](C)(C)C)C(=O)Nc1cccc(C)c1C)c(C)[n+]2[O-]
inactive: DMS-114 > 100 µM | HOP-18 > 100 µM | DLD-1 > 100 µM | RXF 631 > 100 µM | M19-MEL > 100 µM | LXFL 529 > 100 µM | KM-20L2 > 100 µM | SNB-78 > 100 µM
